Marks after values point to notes of the source that are not given here.
What was measured:
Format in all cases: physicochemical
[1] = Particle size distribution before and after drying (Sympatec HELOS, dry dispersion RODOS)
Procedure: The particle size distribution in Table I was measured with a Sympatec HELOS (H0445), dry dispersion system (RODOS), pressure 2 bar.

[2] = Particle size development during crystallization with wet milling and temperature cycles (Example 1)
Procedure: In a sulfonation flask with a blade mixer and a heating/cooling bath 30 g of lactose monohydrate are dissolved in 100 g of water at 62° C. A rotor-stator dispersing apparatus (Ultra Turrax, T25 basic, with S25N-25F) is operated with a rotation speed of 12000 to 22000 rpm to prepare the solution. Then 300 g of ethanol are added. After 1 to 2 minutes crystallization begins at 25 to 35° C. The Ultra Turrax is operated for an additional 10 minutes and then is shut off.
The starting suspension obtained is heated at 50° C. and subsequently cooled within an interval of 1 hour at 20° C. This procedure is repeated still twice more.

[3] = Particle size distribution of spray-dried microcrystals (Example 2); details: Example 2, microcrystals spray-dried from ethanol suspension
Procedure: (§1) Subsequently the suspension obtained in example 1 is filtered by means of a frit and washed with 100 ml of ethanol. The filter cake is suspended in 300 ml ethanol. The suspension is spray-dried under the following conditions in a laboratory spray-drier with two nozzles (2 mm) (QVF/Yamato):
(§2) Microcrystals are obtained in a separating filter of the spray-drier with the following particle size distribution: […]

[4] = Moisture content of spray-dried microcrystals (Example 2); details: Example 2, microcrystals spray-dried from ethanol suspension
Procedure: as §1, §2

[5] = Suspension, 7 percent by weight lactose monohydrate in EtOH/water 75/25 (w/w), before drying
[6] = Example 1, 1st Cycle (heated at 50° C., cooled to 20° C. within 1 hour)

O.OC[C@H]1O[C@@H](O[C@H]2[C@H](O)[C@@H](O)C(O)O[C@@H]2CO)[C@H](O)[C@@H](O)[C@H]1O (stereo partly drawn) [lactose monohydrate]
X10 particle diameter ([1]; After spray-drying, dry powder): 2.25 μm
X50 particle diameter ([1]; After spray-drying, dry powder): 6.0 μm
X100 particle diameter ([1]; After spray-drying, dry powder): 43 μm
X10 particle diameter [1, 5]: 2.11*** μm
X50 particle diameter [1, 5]: 5.9 μm
X100 particle diameter [1, 5]: 43 μm
X50 [2, 6]: 5 μm
X100 [2, 6]: 43 μm
X50 ([2]; Example 1, 2nd Cycle): 5.5 μm
X100 ([2]; Example 1, 2nd Cycle): 43 μm
X50 ([2]; Example 1, 3rd Cycle): 6 μm
X100 ([2]; Example 1, 3rd Cycle): 43 μm
X50 ([2]; Example 1, Starting Suspension): 3 μm
X100 ([2]; Example 1, Starting Suspension): 30 μm
Particle size X10 [3]: 2.5 μm
Particle size X50 [3]: 5.9 μm
Particle size X100 [3]: 43 μm
Moisture content [4]: 4.5%
